Test results: PMC13267291, “In vivo functional profiling and structural characterization of the human GLP1R A316T variant” (Science Advances, 2026)

Columns and labels:
[1] = system: hGLP1R^A316T/A316T versus hGLP1R^+/+ mice; assay: Plasma insulin 10 min into IPGTT, chow-fed mice; type: in vivo, mouse; details: chow diet
Protocol: To measure insulin release during IPGTTs, 10 μl of blood samples were collected via tail venipuncture 10 min after a glucose challenge.
Plasma was collected into potassium EDTA cuvettes (Microvette CB 300, 16.444.100, Starstedt) and stored on ice before centrifugation at 8,000g for 10 min at 4°C to collect plasma supernatants in fresh Eppendorf tubes kept at −80°C until further analysis.

[2] = system: SNAP/FLAG-hGLP1R^A316T versus ^WT; assay: Insulin secretion in transduced primary human islets; type: cell-based; details: 11 mM glucose + 100 nM; n = 4; Fig. 6G,H
[3] = system: SNAP/FLAG-hGLP1R^A316T versus ^WT; assay: High content microscopy GLP-1R internalization assay; type: cell-based, rat; details: INS-1 832/3 sublines; 5-60 min; AUC; n = 3; Fig. 7G
Protocol: INS-1 832/3 Glp1r^−/− SNAP/FLAG-hGLP1R^WT or ^A316T cells were seeded onto poly-D-lysine–coated black 96-well plates for 24 hours before the assay. Cells were labeled for 30 min with 1 μM SNAP surface cleavable BG-SS-649 probe at 37°C and washed once with HBSS before treatment with GLP-1RA or vehicle for 60, 30, 15, or 5 min at 37°C in complete medium. Cells were then washed with cold HBSS, and subsequent steps were carried out at 4°C. The cell-impermeable reducing agent Mesna {100 mM in alkaline tris-NaCl-EDTA (TNE) buffer [20 mM tris-HCl, 1 mM EDTA, and 150 mM NaCl (pH 8.6)]} or alkaline TNE buffer without Mesna was applied for 5 min to cleave BG-SS-649 probe left at the cell surface and then washed with HBSS. […] Internalized GLP-1R, indicated by cell-associated fluorescence, was analyzed after flat-field correction of fluorescent images using the BaSiC plugin ([96]), segmentation of cell-containing regions from phase contrast images using Phantast ([97]), and fluorescence intensity quantification. The percentage of internalized receptor was calculated as follows F+Me(tx)/F−Me(tx)−F+Me(t0)/F−Me(t0)/1−F+Me(t0)/F−Me(t0) where F+Me and F−Me are mean fluorescence intensities ± Mesna at times tx (5, 15, 30, or 60 min) or t0 (0 min). […]

[4] = system: hGLP1R^A316T-SmBiT versus hGLP1R^WT-SmBiT; assay: β-arrestin 2 recruitment by NanoBiT complementation; type: cell-based, rat
Protocol: For mini-Gs recruitment, INS-1 832/3 Glp1r^−/− cells were seeded in 6-cm dishes and transiently cotransfected with 1.7 μg each of hGLP1R^WT or ^A316T-SmBiT and LgBiT-mini-Gs constructs for 24 hours. Cells were then detached, resuspended in Hanks’ balanced salt solution (HBSS) containing NanoGlo Live Cell Reagent (1:20; Promega) with furimazine, and seeded onto white 96-well half-area plates. Baseline luminescence was immediately recorded over 8 min at 37°C in a Flexstation 3 plate reader (Molecular Devices) and for a further 30 min after GLP-1RA addition at serial doses up to 100 nM. Readings were taken every 30 s and normalized to average well baseline, and average vehicle-induced signal was subtracted to establish the agonist-induced effect. To measure β-arrestin 2 recruitment, cells were processed as above with slight modifications: INS-1 832/3 Glp1r^−/− cells were cotransfected with 1.77 μg each of hGLP1R^WT or ^A316T-SmBiT and LgBiT–β-arrestin 2 plasmids for 24 hours, and GLP-1RAs were added at serial doses up to 1 μM. AUCs were calculated for each agonist concentration and fitted to log(agonist) versus response four-parameter curves using GraphPad Prism 10.1.2, with errors propagated for mini-Gs over β-arrestin 2 recruitment bias calculations.

Question: With exendin-4 as the substance, how does the “Plasma insulin increase in response to agonist, hGLP1R^A316T/A316T mice” value ([1]; 10 min into IPGTT, relative to effect in hGLP1R^+/+, Fig. 1L,M) read?
Answer: Its value is “attenuated”.

Question: What about the “Plasma insulin levels in response to agonist, hGLP1R^+/+ mice” value ([1]; 10 min into IPGTT, versus vehicle, Fig. 1L,M) of the same substance?
Answer: Its value is “increased”.

Question: And the “Agonist-dependent plasma insulin rises (vehicle fold changes), A316T/A316T versus +/+” value ([1]; significant at the 6-hour time point, Fig. 1N)?
Answer: The value was “reduced”.

Question: And the “Agonist-induced potentiation of insulin secretion, A316T versus WT” value [2]?
Answer: The value was “near-significant loss”.

Question: GLP-1(7-36)NH2 was tested. Which “A316T GLP-1R internalization versus WT” value [3] did it give?
Answer: Its value is “significantly increased”.

Question: Which “Agonist-induced recruitment of β-arrestin 2, A316T versus WT, log(Emax/EC50)” value ([4]; serial doses up to 1 μM, n = 5, Fig. 7M) does the source give for exendin-F1 here?
Answer: The value was “near-significant reduction”.

Question: What about the “β-arrestin 2 over Gαs signaling bias, A316T versus WT” value ([4]; Δlog(Emax/EC50) βarr2 − mini-Gs, Fig. 7N) of the same substance?
Answer: The value was “significant shift toward Gαs recruitment”.
